Assays:
Conditions in all cases: 10 µM
A549 cells = tested on: A549 cells
HIV-1/H5N1 pseudovirus = test: organism not typed; assay type: cell-based, influenza A virus A/Goose/Qinghai/59/05 (H5N1)
HIV-1/EBOV pseudovirus = tested on: HIV-1/EBOV pseudovirus
HIV-1/LASV pseudovirus = test: microbe, parasite or virus in culture; assay type: cell-based

| Compound | Cell Viability (A549 cells) [%] | Inhibition HIV/H5N1 (HIV-1/H5N1 pseudovirus) [%] | Inhibition HIV/EBOV (HIV-1/EBOV pseudovirus) [%] | Inhibition HIV/LASV (HIV-1/LASV pseudovirus) [%] |
| --- | --- | --- | --- | --- |
| CN(C)C(=O)c1cccc(-c2cc3ccccc3nc2Oc2cccc3ccccc23)c1 [SYL1646] | 83.55 | -23.29 | 99.92 | 82.50 |
| Fc1cccc(COc2nc3ccc(Br)cc3cc2-c2cccc(-c3ncco3)c2)c1 [SYL1650] | 81.60 | -15.72 | 99.92 | 87.63 |
| COc1nc2ccc(Br)cc2cc1C(c1ccccc1)N1CCN(C)c2ccccc21 (centres unmarked) [SYL1628] | 86.44 | -5.51 | 99.91 | 86.50 |
| CN(C)CCOc1nc2ccc(Br)cc2cc1-c1ccc(CN(C)C)cc1 [SYL1723] | 68.89 | 98.10 | 99.81 | 97.12 |
| CN(C)CCCC(O)(c1ccccc1)c1cc2ccccc2nc1Oc1cccc2ccccc12 (centres unmarked) [SYL1635] | 11.15 | 97.52 | 99.63 | 99.31 |
| CN(C)Cc1ccc(-c2cc3cc(Br)ccc3nc2OCc2cccc3ccccc23)cc1 [SYL1665] | 82.87 | 84.24 | 99.92 | 88.72 |
| CN(C)Cc1ccc(-c2cc3cc(Br)ccc3nc2OCc2ccc(-c3ccccc3)cc2)cc1 [SYL1690] | 80.30 | 98.15 | 99.85 | 86.95 |
| CN(C)Cc1ccc(-c2cc3cc(Br)ccc3nc2Oc2ccc(OCc3ccccc3)cc2)cc1 [SYL1698] | 107.16 | 97.44 | 99.64 | 98.80 |
| CN(C)C(=O)Cc1ccc(-c2cc3cc(Br)ccc3nc2OCc2cccc3ccccc23)cc1 [SYL1677] | 58.71 | 15.95 | 90.04 | 29.51 |
| CN(C)Cc1ccc(-c2cc3cc(Br)ccc3nc2SCc2ccccc2)cc1 [SYL1699] | 105.32 | 94.56 | 99.94 | 93.73 |
| Brc1ccc2nc(OCc3cccc4ccccc34)c(-c3ccc(N4CCCC4)cc3)cc2c1 [SYL1686] | 82.03 | 65.78 | 99.92 | 90.35 |
| CN(C)Cc1ccccc1C(O)c1cc2cc(Br)ccc2nc1OCc1cccc2ccccc12 (centres unmarked) [SYL1652] | 61.30 | 98.16 | 99.94 | 97.16 |
| COc1nc2ccc(Br)cc2cc1C(c1ccccc1)N(CCN(C)C)c1cccc2ccccc12 (centres unmarked) [SYL1623] | 87.19 | 105.28 | 97.68 | 15.39 |
| CN(C)Cc1ccc(-c2cc3cc(Br)ccc3nc2OCc2ccncc2)cc1 [SYL1696] | 26.82 | 97.45 | 99.25 | 98.53 |
| CN(C)Cc1cccc(-c2cc3cc(Br)ccc3nc2Oc2ccncc2)c1 [SYL1648] | 84.21 | 37.82 | 99.91 | 89.27 |
| CCN(CC)CCc1ccc(-c2cc3cc(Br)ccc3nc2OCc2cccc3ccccc23)cc1 [SYL1671] | 88.97 | 92.36 | 99.87 | 89.90 |
| CN(C)Cc1ccc(-c2cc3cc(Br)ccc3nc2Oc2ccccc2)cc1 [SYL1676] | 89.65 | 36.23 | 71.19 | 19.98 |
| CN(C)Cc1cccc(-c2cc3ccccc3nc2Oc2cccc3ccccc23)c1 [SYL1637] | 80.11 | 97.92 | 99.81 | 81.65 |

| Compound | Cell Viability (A549 cells) [%] | Inhibition HIV/H5N1 (HIV-1/H5N1 pseudovirus) [%] | Inhibition HIV/EBOV (HIV-1/EBOV pseudovirus) [%] | Inhibition HIV/LASV (HIV-1/LASV pseudovirus) [%] |
| --- | --- | --- | --- | --- |
| CN(C)CCc1cccc(-c2cc3cc(Br)ccc3nc2OCc2cccc3ccccc23)c1 [SYL1643] | 85.39 | 72.74 | 99.82 | 83.87 |
| COc1nc2ccc(Br)cc2cc1C(c1ccccc1)C1(OC(=O)c2ccccc2)CCN(C)CC1 (centres unmarked) [SYL1645] | 82.47 | 45.37 | 99.92 | 86.68 |
| COc1ccc2nc(OCc3cccc4ccccc34)c(-c3cccc(CN(C)C)c3)cc2c1 [SYL1667] | 83.17 | 85.49 | 99.94 | 85.91 |
| Brc1ccc2nc(OCc3cccc4ccccc34)c(-c3ccc(CN4CCOCC4)cc3)cc2c1 [SYL1708] | 80.29 | 18.60 | 98.58 | 82.96 |
| COc1nc2ccccc2cc1C(Nc1ccccc1NCCN(C)C)c1ccccc1 (centres unmarked) [SYL1621] | 52.36 | 97.96 | 99.90 | 99.14 |
| CN(C)Cc1cccc(-c2cc3cc(Br)ccc3nc2OCc2cccc(F)c2)c1 [SYL1666] | 81.28 | 87.06 | 99.92 | 91.03 |
| CN(C)Cc1ccc(-c2cc3cc(Br)ccc3nc2OCc2cccc3ccccc23)cc1F [SYL1678] | 122.25 | 93.90 | 99.38 | 97.25 |
| CN(C)Cc1ccc(-c2cc3cc(Br)ccc3nc2OCc2c(F)cccc2F)cc1 [SYL1693] | 3.19 | 97.66 | 99.59 | 99.04 |
| CN1CCN(c2ccc(-c3cc4cc(Br)ccc4nc3OCc3cccc4ccccc34)cn2)CC1 [SYL1687] | 78.11 | 31.90 | 99.94 | 88.94 |
| COc1nc2ccc(Br)cc2cc1-c1ccc(CN(C)C)cc1 [SYL1689] | 78.79 | 97.51 | 99.94 | 88.23 |
| CN(C)Cc1cccc(-c2cc3cc(Br)ccc3nc2Sc2cccc(O)c2)c1 [SYL1639] | 2.71 | 97.65 | 99.85 | 98.93 |
| CN(C)Cc1ccc(-c2cc3cc(Br)ccc3nc2OCc2cccc(F)c2)cc1 [SYL1715] | 84.72 | 95.43 | 99.61 | 76.84 |
| CN(C)Cc1ccc(-c2cc3cc(Br)ccc3nc2OCc2ccccc2)cc1 [SYL1675] | 88.37 | 98.13 | 99.89 | 91.37 |
| COc1nc2ccc(Br)cc2cc1C(c1ccccc1)n1cc(CN(C)C)c2ccccc21 (centres unmarked) [SYL1629] | 90.62 | 29.75 | 99.91 | 88.22 |
| CN(C)CCC(O)(c1cccc(F)c1)C1c2ccccc2Sc2ccccc21 (centres unmarked) [SYL1634] | 81.21 | 83.95 | 99.53 | 83.87 |
| COc1nc2ccc(Br)cc2cc1C(c1ccccc1)C1(O)CCN(C)CC1 (centres unmarked) [SYL1636] | 4.08 | 97.70 | 99.39 | 98.04 |
| CN(C)Cc1ccc(-c2cc3cc(Br)ccc3nc2N2CCCCC2)cc1 [SYL1714] | 91.09 | 83.36 | 98.67 | 51.47 |

Source: article PMC6315506 (Viruses, 2018)
